Measurements: patent EP0942911B1, “BENZOPYRANOPYRROLE AND BENZOPYRANOPYRIDINE ALPHA-1 ADRENERGIC COMPOUNDS” (Abbott Laboratories, priority 1996, dated 1998)
Counter-ions that a name gives are not always drawn. Like-named read-outs stand apart in the source and are kept apart here.

Columns and labels:
[1] = biological target: T1, α-1a adrenoreceptor (Bos taurus, UniProt P18130); assay: biochemical; type: binding, bovine; details: read-out: Radioligand Binding (Ki, nM) 1a (Bovine)
T1 sequence (P18130 1-466): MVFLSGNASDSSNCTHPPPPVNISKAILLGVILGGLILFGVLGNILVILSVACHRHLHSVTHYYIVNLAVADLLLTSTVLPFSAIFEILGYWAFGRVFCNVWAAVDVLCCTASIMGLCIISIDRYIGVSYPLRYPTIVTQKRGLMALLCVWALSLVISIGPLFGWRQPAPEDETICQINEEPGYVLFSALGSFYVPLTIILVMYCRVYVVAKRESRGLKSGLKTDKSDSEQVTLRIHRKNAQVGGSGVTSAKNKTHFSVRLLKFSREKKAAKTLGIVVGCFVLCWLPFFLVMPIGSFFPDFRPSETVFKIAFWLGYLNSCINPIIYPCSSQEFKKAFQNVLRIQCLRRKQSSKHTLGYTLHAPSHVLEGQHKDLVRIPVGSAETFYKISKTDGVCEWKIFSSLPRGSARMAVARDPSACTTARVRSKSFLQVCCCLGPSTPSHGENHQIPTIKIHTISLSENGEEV
Summary of the method: (§1)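 Cloned α-1a (bovine), α-1b (hamster) and α-1d (rat) adrenoreceptors were stably expressed in mouse LTK fibroblasts; membranes from roller-bottle cultures were used. Native α-1A sites came from rat submaxillary gland. Radioligand binding followed Greengrass and Bremner, with liquid scintillation read-out.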

[2] = tested on: α-1 Adrenoceptors; assay: Functional antagonism in rat aorta (method not described); type: cell-based
[3] = biological target: T2, α-1d adrenoreceptor (Rattus norvegicus, UniProt P23944); assay: biochemical; type: binding; details: read-out: Radioligand Binding (Ki, nM) 1d (Rat)
T2 sequence (P23944 1-561): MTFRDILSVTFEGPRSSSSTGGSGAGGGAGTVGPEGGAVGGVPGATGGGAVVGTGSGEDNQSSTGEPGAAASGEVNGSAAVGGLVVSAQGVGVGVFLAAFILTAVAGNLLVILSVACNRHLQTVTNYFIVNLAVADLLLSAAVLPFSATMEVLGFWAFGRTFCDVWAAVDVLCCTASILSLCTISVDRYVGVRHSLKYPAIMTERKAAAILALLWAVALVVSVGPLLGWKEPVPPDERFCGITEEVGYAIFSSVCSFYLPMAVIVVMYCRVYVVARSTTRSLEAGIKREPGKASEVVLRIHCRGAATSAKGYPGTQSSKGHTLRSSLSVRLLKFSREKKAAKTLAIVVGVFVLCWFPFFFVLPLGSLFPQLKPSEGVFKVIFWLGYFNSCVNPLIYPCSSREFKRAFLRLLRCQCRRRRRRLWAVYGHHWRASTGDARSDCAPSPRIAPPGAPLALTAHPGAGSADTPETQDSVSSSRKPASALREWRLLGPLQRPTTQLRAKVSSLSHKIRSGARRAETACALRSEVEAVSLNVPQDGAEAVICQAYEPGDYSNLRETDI
Summary of the method: as §1

[4] = biological target: T3, α-1B adrenoreceptor (Rattus norvegicus, UniProt P15823); assay: cell-based; details: phenylephrine-induced contraction; Schild plot
T3 construct: from tissue; host or cells: rat spleen
T3 sequence (P15823 1-515): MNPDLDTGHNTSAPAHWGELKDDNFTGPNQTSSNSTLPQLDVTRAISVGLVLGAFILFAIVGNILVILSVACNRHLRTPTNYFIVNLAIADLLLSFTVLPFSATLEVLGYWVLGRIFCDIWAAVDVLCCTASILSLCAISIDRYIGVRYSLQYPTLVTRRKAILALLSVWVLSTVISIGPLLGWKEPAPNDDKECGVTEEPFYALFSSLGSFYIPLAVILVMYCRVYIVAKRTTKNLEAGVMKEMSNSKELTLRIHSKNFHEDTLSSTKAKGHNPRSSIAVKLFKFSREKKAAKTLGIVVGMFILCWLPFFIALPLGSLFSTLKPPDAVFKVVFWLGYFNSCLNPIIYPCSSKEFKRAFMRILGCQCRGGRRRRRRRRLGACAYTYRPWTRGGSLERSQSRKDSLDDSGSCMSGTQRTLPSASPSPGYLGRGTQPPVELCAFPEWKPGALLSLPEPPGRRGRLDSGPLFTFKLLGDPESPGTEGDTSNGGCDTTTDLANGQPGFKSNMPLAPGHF
Text: (§2) Functional assays indicative of pharmacologically defined α-1 adrenoreceptors were used to further characterize compounds. Inhibition of phenylephrine (PE)-induced contraction of canine prostate smooth muscle can be correlated with α-1A adrenoreceptor activation. […] For each of these models, agonist dose response curves were repeated against increasing concentrations of test agent to derive a Schild plot [log ([…]) against log (molarity of test agent)] to determine the pA2.

[5] = tested on: α-1A adrenoreceptor; assay: Functional antagonism: inhibition of PE-induced contraction of canine prostate strips (Schild plot); type: cell-based; details: phenylephrine-induced contraction
Text: Canine prostate strips were used in vitro as previously described (Hieble, J.P., Boyce, A.J. and Caine, M., Fed. Proc., 45: 2609-2614 (1986)), to determine antagonist potencies against phenylephrine-induced contractions.
as §2

[6] = biological target: T4, α-1A adrenoreceptor (rat submaxillary gland) (Rattus norvegicus, UniProt P43140); assay: biochemical; type: binding; details: read-out: Radioligand Binding (Ki, nM) 1A (Rat)
T4 sequence (P43140 1-466): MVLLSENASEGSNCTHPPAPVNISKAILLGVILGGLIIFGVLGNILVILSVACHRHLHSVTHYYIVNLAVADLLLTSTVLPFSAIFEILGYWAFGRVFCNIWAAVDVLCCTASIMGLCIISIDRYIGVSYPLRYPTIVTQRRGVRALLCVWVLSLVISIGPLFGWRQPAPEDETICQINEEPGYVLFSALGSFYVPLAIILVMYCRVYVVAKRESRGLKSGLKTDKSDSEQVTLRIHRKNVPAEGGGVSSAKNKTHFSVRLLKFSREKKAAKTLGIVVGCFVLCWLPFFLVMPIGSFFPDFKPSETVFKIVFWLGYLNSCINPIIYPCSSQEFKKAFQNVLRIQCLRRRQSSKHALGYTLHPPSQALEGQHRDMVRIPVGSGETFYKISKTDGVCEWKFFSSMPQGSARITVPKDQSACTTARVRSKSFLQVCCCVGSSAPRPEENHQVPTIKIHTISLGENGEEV
Summary of the method: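 Radioligand binding to α-1A sites in membrane homogenates of rat submaxillary gland, run after Greengrass and Bremner. Bound radioactivity counted by liquid scintillation.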

[7] = biological target: T5, α-1b adrenoreceptor (Mesocricetus auratus, UniProt P18841); assay: biochemical; type: binding, hamster; details: read-out: Radioligand Binding (Ki, nM) 1b (Hamster)
T5 sequence (P18841 1-515): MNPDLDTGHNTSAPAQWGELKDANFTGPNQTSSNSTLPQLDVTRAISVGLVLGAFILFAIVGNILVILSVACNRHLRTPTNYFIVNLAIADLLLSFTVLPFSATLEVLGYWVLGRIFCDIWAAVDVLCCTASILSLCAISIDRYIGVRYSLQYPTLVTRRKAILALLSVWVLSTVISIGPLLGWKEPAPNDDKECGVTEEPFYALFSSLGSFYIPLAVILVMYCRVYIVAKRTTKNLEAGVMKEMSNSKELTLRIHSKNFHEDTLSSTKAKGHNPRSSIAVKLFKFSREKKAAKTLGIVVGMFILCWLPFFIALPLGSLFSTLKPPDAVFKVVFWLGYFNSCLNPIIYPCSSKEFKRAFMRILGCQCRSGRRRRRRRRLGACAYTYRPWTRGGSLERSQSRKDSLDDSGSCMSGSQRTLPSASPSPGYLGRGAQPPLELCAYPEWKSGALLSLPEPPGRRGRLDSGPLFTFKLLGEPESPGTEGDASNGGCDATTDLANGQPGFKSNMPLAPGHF
Summary of the method: as §1

[8] = [3H]-prazosin radioligand, cloned receptor in LTK cell membranes
[9] = [3H]-prazosin radioligand, rat submaxillary gland membranes

## COc1cc2nc(N3CCN(C(=O)C4CCCO4)CC3)nc(N)c2cc1OC (stereo not shown) [Terazosin, terazosin, reference compound]
[1]; [8]
  Ki: 3.31 nM
[2]
  In Vitro Characterization (pA2) Rat Aorta: 8.65
[3]; [8]
  Ki: 0.689 nM
[4]
  In Vitro Characterization (pA2) Rat Spleen: 8.60

## COc1cccc2c1[C@@H]1CN(CCCCn3c(=O)[nH]c4c(sc5nc(Cl)ccc54)c3=O)C[C@@H]1CO2 [Example 32, 3-[4-((3aR,9bR)-cis-9-Methoxy-1,2,3,3a,4,9b-hexahydro-[1]-benzopyrano[3,4-c]pyrrol-2-yl)butyl]-7-chloro-pyrido[3',2':4,5]thieno[3,2-d]pyrimidine-2,4(1H,3H)-dione hydrochloride]
[2]
  In Vitro Characterization (pA2) Rat Aorta: 9.31
[3]; [8]
  Ki: 0.86 nM

## COc1cccc2c1[C@@H]1CCN(CCCCn3c(=O)[nH]c4c(sc5cccnc54)c3=O)C[C@H]1CO2 (racemic) [Example 88, 3-[4-((±)-trans-10-Methoxy-1,3,4,4a,5,10b-hexahydro-2H-[1]-benzopyrano[3,4-c]pyrido-3-yl)butyl]-pyrido[2',3':4,5]thieno[3,2-d]pyrimidine-2,4(1H,3H)-dione hydrochloride]
[5]
  In Vitro Characterization (pA2) Dog Prostate: 8.09

## COc1cccc2c1[C@@H]1CN(CCCCn3c(=O)[nH]c4c(sc5ncc(-c6ccsc6)nc54)c3=O)C[C@H]1CO2 [Example 59, 3-[4-((3aS,9bR)-trans-9-Methoxy-1,2,3,3a,4,9b-hexahydro-[1]-benzopyrano[3,4-c]pyrrol-2-yl)butyl]-8-(3-thienyl)-pyrazino[2',3':4,5]thieno[3,2-d]pyrimidine-2,4(1H,3H)-dione dihydrochloride]
[1]; [8]
  Ki: 0.049 nM
[6]; [9]
  Ki: 0.166 nM
[7]; [8]
  Ki: 6.74 nM
[3]; [8]
  Ki: 0.257 nM

## COc1cccc2c1[C@@H]1CN(CCCCn3c(=O)[nH]c4c(sc5cccnc54)c3=O)C[C@@H]1CO2 (racemic) [Example 73, 3-[4-((±)-cis-9-Methoxy-1,2,3,3a,4,9b-hexahydro-[1]-benzopyrano[3,4-c]pyrrol-2-yl)butyl]-pyrido[2',3':4,5]thieno[3,2-d]pyrimidine-2,4[1H,3H)-dione dihydrochloride]
[1]
  Ki: 0.038 nM
[6]
  Ki: 0.087 nM
[7]
  Ki: 1.31 nM
[3]
  Ki: 0.187 nM

## COc1cc2[nH]c(=O)n(CCCN3CC[C@H]4c5c(OC)cccc5OC[C@@H]4C3)c(=O)c2cc1OC (racemic) [Example 83, 3-[3-(±)-trans-10-Methoxy-1,3,4,4a,5,10b-hexahydro-2H-[1]-benzopyrano[3,4-c]pyrido-3-yl)propyl]-6,7-dimethoxy-quinazoline-2,4(1H,3H)-dione hydrochloride]
[1]; [8]
  Ki: 0.217 nM
[6]; [9]
  Ki: 0.383 nM
[7]; [8]
  Ki: 3.07 nM
[3]; [8]
  Ki: 0.807 nM

## COc1cccc2c1[C@H]1CN(CCCCn3c(=O)[nH]c4c(sc5ncc(Cl)nc54)c3=O)C[C@@H]1CO2 [Example 10, 3-[4-((3aR,9bS)-trans-9-Methoxy-1,2,3,3a,4,9b-hexahydro-[1]-benzopyrano[3,4-c]pyrrol-2-yl)butyl]-8-chloro-pyrazino[2',3':4,5]thieno[3,2-d]pyrimidine-2,4(1H,3H)-dione hydrochloride]
[1]; [8]
  Ki: 0.406 nM
[6]; [9]
  Ki: 0.662 nM
[7]; [8]
  Ki: 10.4 nM
[3]; [8]
  Ki: 1.6 nM

## COc1cccc2c1[C@@H]1CN(CCCCn3c(=O)[nH]c4c(sc5ncc(-c6ccoc6)nc54)c3=O)C[C@@H]1CO2 [Example 62, 3-[4-((3aR,9bR)-cis-9-Methoxy-1,2,3,3a,4,9b-hexahydro-[1]-benzopyrano[3,4-c]pyrrol-2-yl)butyl]-8-(3-furyl)-pyrazino[2',3':4,5]thieno[3,2-d]pyrimidine-2,4(1H,3H)-dione dihydrochloride]
[1]; [8]
  Ki: 52 nM
[6]; [9]
  Ki: 983 nM
[7]; [8]
  Ki: 1150 nM
[3]; [8]
  Ki: 411 nM

## COc1cccc2c1[C@H]1CN(CCCCn3c(=O)[nH]c4c(sc5c(OC)ccnc54)c3=O)C[C@@H]1CO2 [Example 8, 3-[4-((3aR,9bS)-trans-9-Methoxy-1,2,3,3a,4,9b-hexahydro-[1]-benzopyrano[3,4-c]pyrrol-2-yl)butyl]-6-methoxy-pyrido[2',3':4,5]thieno[3,2-d]pyrimidine-2,4(1H,3H)-dione dihydrochloride]
[1]; [8]
  Ki: 0.362 nM
[6]; [9]
  Ki: 0.762 nM
[7]; [8]
  Ki: 4.19 nM
[3]; [8]
  Ki: 1.42 nM
